Reference: US20240360153A1 (Regeneron Pharmaceuticals, Inc., priority 2023, published 2024)

Tests used:
[1] = In vitro microsomal metabolic stability, CD-1 mouse liver microsomes; format: in vitro ADME; settings: for CLint scaled at 1 µM / microsomal CLint at 1 µM: CD-1, mouse, mouse liver microsomes, pH 7.2; for half-life at 1 µM: CD-1, pH 7.2, 0.5 mg/ml protein, NADPH; for half-life at 1 µM / Remaining (T = 60 min) / Remaining (T = NCF60 min): Mouse liver microsomes; for Remaining (T = 60 min): with NADPH; for Remaining (T = NCF60 min): without NADPH regenerating system; for Remaining (T = 60 min) / Remaining (T = NCF60 min): 60 min
Protocol: (§1) Buffers: PBK Buffer: 50 mM potassium phosphate buffer (PPB), pH 7.2, with 3.3 mM Magnesium Chloride.
(§2) TA Intermediate solution: Compound or control (3 μL) diluted from stock solution (10 mM) with 297 μL 90.0% methanol/water. (Conc: 100 μM; 1.0% DMSO, 89.1% MeOH).
(§3) Control cocktail intermediate solution: Each control (3 μL) was diluted with 291 μL 90.0% methanol/water.
(§4) Diluted TA intermediate stock solution and PC control stock were made by transferring 80 μL of 100 μM TA stock solution into new tubes and then adding 720 μL of 1.0% DMSO in 50 mM potassium phosphate buffer (conc. 10 μM; 1.0% DMSO, 8.91% MeOH).
(§5) Preparation of Liver microsomes working solution (1.25×)(final Conc.: 0.5 mg/mL).
(§6) Acetonitrile:methanol (9:1, v/v)(including 200 ng/mL tolbutamide and 200 ng/ml labetalol hydrochloride as internal standards).
(§7) Working solution: Intermediate solution (80 μL) was diluted with 720 μL 1.0% DMSO in 50 mM potassium phosphate buffer (Conc.: 10 μM; 1.0% DMSO, 8.91% MeOH)
(§8) Procedure: Stock solution was added to each of the time point plates. Microsomes solution (360 μL/well), TA/PC (45 μL/well), and NADPH (45 μL/well) min. (Conc: 1.0 μM, 0.10% DMSO, 0.891% MeOH) were added to the incubation plates. To the T60 and NCF60 plate, TA (15 ul/well) and Microsomes (120 ul) were added. To the blank plate, microsome (50 ul/well) with stop solution (150 ul/well) were added. At the end of each time point, 50 ul/well was aliquoted from the incubation plate. The sampling plates were shaken for approximately 10 min. on a shaker and the samples were centrifuged at 4000 rpm for 15 min. Supernatant (120 μL) was transferred for LC/MS/MS.Compounds from Table 3 were incubated at 37° C. with liver microsomes (pooled from multiple donors) at 1 μM in the presence of a NADPH regenerating system at 0.5 mg/ml microsomal protein. Positive controls included testosterone (3A4 substrate), propafenone (2D6) and diclofenac (2C9), which were incubated with microsomes in the presence of an NADPH regenerating system. At time points (0, 5, 10, 20, 30 and 60 minutes), samples were removed and immediately mixed with cold acetonitrile containing the internal standard (IS). Test compounds incubated with microsomes without the NADPH regenerating system for 60 min are also included. A single point for each test condition (n=1) was obtained, and samples were analyzed by LC/MS/MS. Disappearance of the test compound was assessed based on peak area ratios of analyte/IS (no standard curve).

[2] = In vitro microsomal metabolic stability, human liver microsomes; format: in vitro ADME; settings: for Remaining (T = 60 min) / Remaining (T = NCF60 min) / half-life at 1 µM: Human liver microsomes; for Remaining (T = 60 min): with NADPH; for Remaining (T = NCF60 min): without NADPH regenerating system; for Remaining (T = 60 min) / Remaining (T = NCF60 min): 60 min; for CLint scaled at 1 µM / microsomal CLint at 1 µM: human, human liver microsomes; for CLint scaled at 1 µM / microsomal CLint at 1 µM / half-life at 1 µM: pH 7.2; for half-life at 1 µM: 0.5 mg/ml protein, NADPH
Protocol: as §1, §2, §3, §4, §5, §6, §7, §8

[3] = test system: S6K1 (Thr389) phosphorylation (mTORC1 activity) in FKBP12 knock-out 293T cells; assay: Inhibition of S6K1 (Thr389) phosphorylation in FKBP12 knock-out 293T cells (ELISA); format: cell-based, human; settings: for selectivity for FKBP12 compared with RAD001 (in words): wild-type versus FKBP12 knock-out cells
Description: Example Generation of FKBP 12 knock-out cells. A CRISPR/Cas9 system was used to deliver ribonucleoprotein complexes containing guide RNA sequences that target FKBP12 (ac[…], location 1369062; ccactactcac[…], location 1369181) in HEK293T cells using Lipofectamine CRISPRMAX transfection reagent (Invitrogen CMAX00008). Cell clones were screened by immunoblotting with anti-FKBP-specific antibody (Novus, NB300-508). Single cells that were deficient for FKBP12 protein were selected and cloned.
(§9) Treatment of wild-type (WT) and FKBP12 knock-out 293T cells with RAD001 (everolimus) and test compounds. WT and FKBP12 knock-out 293T cells were cultured in Dulbecco's modified Eagle's medium (Gibco #11971-025) supplemented with 10% fetal bovine serum (Gibco #26140-079). Cells were plated at a density of 15,000 cells per well in poly-D-Lysine coated 96-well plates (Corning, #354461) and were incubated at 37° C., 5% CO2 for 24 hours until they reached ˜80% confluence. Cells were treated with RAD001 or test compounds reconstituted in dimethyl sulfoxide (DMSO) using a 8-11-point dose range, from 0.001 pM to 10 μM. All treatments were performed in duplicates for 2 hours at 37° C. Cell culture media supplemented with blank dimethyl sulfoxide (DMSO) was used as a negative control for all compounds. Phosphorylated amounts of S6K1 (Thr389) were measured using an ELISA kit (Invitrogen 85-86052-11), following the manufacture's protocol.
(§10) S6K1 is an immediate downstream target of mTORC1 and therefore phosphorylation of S6K1 at Thr389 residue is used to measure mTORC1 activity (PMID: 16968213). Amounts of phosphorylated S6K1 (Thr389) were measured in WT and FKBP12 knock-out 293T cells treated with either RAD001 or Compound 44 (FIGS. 1A and 1B), and Compound 45 (FIGS. 1C and 1D).

[4] = test system: S6K1 (Thr389) phosphorylation (mTORC1 activity) in wild-type (WT) 293T cells; assay: Inhibition of S6K1 (Thr389) phosphorylation in wild-type 293T cells (ELISA); format: cell-based, human; settings: for IC50: Homo sapiens, HEK-293T, 2 h, wild-type 293T cells, 2 hours treatment; for fold lower potency compared with RAD001 (by IC50) / extent of inhibition of S6K1 (Thr389) phosphorylation: wild-type cells; for extent of inhibition of S6K1 (Thr389) phosphorylation: with increasing concentrations
Protocol: as §9, §10

| CLint scaled at 1 µM [1] [L/h/kg] | microsomal CLint at 1 µM [1] [µL/min/mg] | half-life at 1 µM [1] [min] | Remaining (T = 60 min) [1] [%] | Remaining (T = NCF60 min) [1] [%] | Remaining (T = 60 min) [2] [%] | Remaining (T = NCF60 min) [2] [%] | CLint scaled at 1 µM [2] [L/h/kg] | microsomal CLint at 1 µM [2] [µL/min/mg] | half-life at 1 µM [2] [min] | SMILES | inhibition of S6K1 (Thr389) phosphorylation in the absence of FKBP12 (in words) ([3]; FKBP12 knock-out cells) | fold less potent compared with RAD001 ([3]; FKBP12 knock-out cells, at similar level of inhibition) [fold] | inhibition at 10 µM ([3]; Homo sapiens, HEK-293T, FKBP12 knock-out cells, 10 μM (highest tested concentration)) [%] | selectivity for FKBP12 compared with RAD001 (in words) [3] | IC50 [4] [nM] | fold lower potency compared with RAD001 (by IC50) [4] [fold] | extent of inhibition of S6K1 (Thr389) phosphorylation [4] | inhibition at 1 µM ([3]; Homo sapiens, HEK-293T, FKBP12 knock-out cells, 1 μM) [%] |
| --- | --- | --- | --- | --- | --- | --- | --- | --- | --- | --- | --- | --- | --- | --- | --- | --- | --- | --- |
| 9.72 | 41 | 33.8 | 31 | 96 | 7.50 | 99 | 4.3 | 79.6 | 17.4 | COc1cccc(NC2C[C@@H]3CC[C@@H](C)[C@@](O)(O3)C(=O)C(=O)N3CCCCC3C(=O)O[C@H]([C@H](C)C[C@@H]3CC[C@@H](O)[C@H](OC)C3)CC[C@H](C)/C=C(\C)[C@@H](O)[C@@H](OC)C(=O)[C@H](C)C[C@H](C)/C=C/C=C/C=C/2C)c1 (stereo partly drawn) [Compound 44, (3S,6S,7E,9R,10R,12R,14S,15E,17E,19E,23S,26R,27R,34aS)-9,27-dihydroxy-3-((R)-1-((1S,3R,4R)-4-hydroxy-3-methoxycyclohexyl)propan-2-yl)-10-methoxy-21-((3-methoxyphenyl)amino)-6,8,12,14,20,26-hexamethyl-5,6,9,10,12,13,14,21,22,23,24,25,26,27,32,33,34,34a-octadecahydro-3H-23,27-epoxypyrido[2,1-c][1]oxa[4]azacyclohentriacontine-1,11,28,29(4H,31H)-tetraone] | did not inhibit S6K1 phosphorylation at any tested concentration lower than 10 μM | ~100 | ~30 | relatively more selective for FKBP12 compared to RAD001 | 11 | ~17 | completely inhibit | – |
| 15.3 | 64.3 | 21.5 | 15 | 85 | 0.20 | 89 | 10.9 | 202 | 6.86 | CO[C@@H]1C[C@H](C[C@@H](C)[C@@H]2CC[C@H](C)/C=C(\C)[C@@H](O)[C@@H](OC)C(=O)[C@H](C)C[C@H](C)/C=C/C=C/C=C(\C)C(NS(=O)(=O)c3cnoc3C)C[C@@H]3CC[C@@H](C)[C@@](O)(O3)C(=O)C(=O)N3CCCCC3C(=O)O2)CC[C@H]1O (stereo partly drawn) [Compound 51, N-((3S,6S,7E,9R,10R,12R,14S,15E,17E,19E,23S,26R,27R,34aS)-9,27-dihydroxy-3-((R)-1-((1S,3R,4R)-4-hydroxy-3-methoxycyclohexyl)propan-2-yl)-10-methoxy-6,8,12,14,20,26-hexamethyl-1,11,28,29-tetraoxo-1,4,5,6,9,10,11,12,13,14,21,22,23,24,25,26,27,28,29,31,32,33,34,34a-tetracosahydro-3H-23,27-epoxypyrido[2,1-c][1]oxa[4]azacyclohentriacontin-21-yl)-5-methylisoxazole-4-sulfonamide] | no further inhibition at 10 μM | – | – | not completely selective to FKBP12 | 4.53 | 12 | near complete inhibition | 18 |
| 2.45 | 10.3 | 135 | 76 | 112 | 47 | 102 | 1.33 | 24.7 | 56.2 | CCOc1cccc(NC2C[C@@H]3CC[C@@H](C)[C@@](O)(O3)C(=O)C(=O)N3CCCCC3C(=O)O[C@H]([C@H](C)C[C@@H]3CC[C@@H](O)[C@H](OC)C3)CC[C@H](C)/C=C(\C)[C@@H](O)[C@@H](OC)C(=O)[C@H](C)C[C@H](C)/C=C/C=C/C=C/2C)c1 (stereo partly drawn) [Compound 59, (3S,6S,7E,9R,10R,12R,14S,15E,17E,19E,23S,26R,27R,34aS)-21-((3-ethoxyphenyl)amino)-9,27-dihydroxy-3-((R)-1-((1S,3R,4R)-4-hydroxy-3-methoxycyclohexyl)propan-2-yl)-10-methoxy-6,8,12,14,20,26-hexamethyl-5,6,9,10,12,13,14,21,22,23,24,25,26,27,32,33,34,34a-octadecahydro-3H-23,27-epoxypyrido[2,1-c][1]oxa[4]azacyclohentriacontine-1,11,28,29(4H,31H)-tetraone] | inhibited the mTORC1 signaling in a dose dependent manner | – | – | relatively not FKBP12 selective | 0.17 | 2 | near complete inhibition | – |
| – | < 9.6 | > 145 | 101 | 150 | 32 | 107 | 2.27 | 42.1 | 33 | CO[C@@H]1C[C@H](C[C@@H](C)[C@@H]2CC[C@H](C)/C=C(\C)[C@@H](O)[C@@H](OC)C(=O)[C@H](C)C[C@H](C)/C=C/C=C/C=C(\C)C(Nc3ccc(Cl)cc3)C[C@@H]3CC[C@@H](C)[C@@](O)(O3)C(=O)C(=O)N3CCCCC3C(=O)O2)CC[C@H]1O (stereo partly drawn) [Compound 48, (3S,6S,7E,9R,10R,12R,14S,15E,17E,19E,23S,26R,27R,34aS)-21-((4-chlorophenyl)amino)-9,27-dihydroxy-3-((R)-1-((1S,3R,4R)-4-hydroxy-3-methoxycyclohexyl)propan-2-yl)-10-methoxy-6,8,12,14,20,26-hexamethyl-5,6,9,10,12,13,14,21,22,23,24,25,26,27,32,33,34,34a-octadecahydro-3H-23,27-epoxypyrido[2,1-c][1]oxa[4]azacyclohentriacontine-1,11,28,29(4H,31H)-tetraone] | did not inhibit S6K1 (Thr389)phosphorylation at any tested concentrations | – | – | relatively more selective to FKBP12 compared with RAD001 | 9.8 | 30 | near complete inhibition | – |
